Key:
[1] = biological target: T1, human notum pectinacetyltransferase (Homo sapiens, UniProt Q6P988); assay: Binding assay (OPTS esterase substrate, fluorimetric); type: biochemical; details: class symbols
T1 construct: made in house; unpurified conditioned medium used
T1 sequence (Q6P988 20-496): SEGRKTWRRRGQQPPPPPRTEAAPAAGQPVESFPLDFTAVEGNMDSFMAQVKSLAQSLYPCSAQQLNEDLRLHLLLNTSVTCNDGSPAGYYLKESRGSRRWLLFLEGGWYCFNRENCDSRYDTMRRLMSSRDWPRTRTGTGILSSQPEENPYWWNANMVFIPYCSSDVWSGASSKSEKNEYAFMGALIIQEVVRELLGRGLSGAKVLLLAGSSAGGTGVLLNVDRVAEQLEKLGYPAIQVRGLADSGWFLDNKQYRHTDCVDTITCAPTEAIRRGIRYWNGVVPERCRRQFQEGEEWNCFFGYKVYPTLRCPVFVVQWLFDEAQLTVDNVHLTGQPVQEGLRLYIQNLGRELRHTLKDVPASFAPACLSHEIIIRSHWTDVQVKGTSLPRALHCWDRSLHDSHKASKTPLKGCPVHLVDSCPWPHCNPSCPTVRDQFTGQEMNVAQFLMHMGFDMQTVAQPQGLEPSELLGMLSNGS
Experimental: Plasmid containing human notum pectinacetyltransferase in pcDNA3.1(+) vector was transfected into HEK (293 cells and clones were selecting by growing in presence of 400 ug/mL of G418. Condition media from these cells was used for the assay.

[2] = biological target: T1, human notum pectinacetyltransferase; assay: Reporter assay (CellSensor LEF/TCF-bla FreeStyle 293F cells, Wnt3a and notum conditioned media); type: cell-based; details: class symbols
Experimental: Plasmid containing human notum pectinacetyltransferase in pcDNA3.1(+) vector was transfected into HEK (293 cells and clones were selecting by growing in presence of 400 ug/mL of G418. The clone containing highest expression of human notum pectinacetyltransferase in the conditioned media was maintained for all future activity assays. L cells overexpressing and secreting Wnt3a into the conditioned media were purchased from ATCC.
The assay protocol was as follows. […] The cell growth medium consisted of DMEM with 10% Dialyzed FBS, 5 μg/ml Blasticidin (Invitrogen, R210-01), 0.1 mM NEAA, 25 mM HEPES and 1×GPS. Cells were then trypsinized by first rinsing with PBS, followed by addition of 5 mL of trypsin and incubation of plates at room temperature for two minutes. A total of 10 mL of assay media (Opti-MEM, plus 0.5% dialyzed FBS, 0.1 mM NEAA, 1 mM sodium pyruvate, 10 mM HEPES, 1×GPS) was then added per 15 cm plate. Cells were counted and suspended at 0.75 million cells per mL. […] After incubation of cells at 37° C. for 3 hours, 10 μL of 30 mM LiCl in assay medium was added per well, followed by incubation at 37° C. for another 3 hours. […] Ten μL of the Wnt3a/notum pentinacetyltransferase mixture was then transferred from Greiner plates to each well of the 384-well plates containing the CellSensor cells.

| SMILES | IC50 [1] [µM] | EC50 [2] [µM] |
| --- | --- | --- |
| N#CC1CCN(C(=O)c2cc3c(s2)-c2cccc(F)c2CC3)C1 (stereo not drawn) | < 0.1 | < 0.05 |
| COc1ccccc1C1CN(C(=O)c2cc3c(s2)-c2ccc(Cl)c(F)c2OC3)CC1C(=O)O (stereo not drawn) | < 1 | < 0.05 |
| N#CC1CCN(C(=O)c2cc3c(s2)-c2ccc(Cl)c(F)c2OC3)C1 (stereo not drawn) | < 1 | < 0.05 |
| CCC1Cc2cc(C(N)=O)sc2-c2c(F)ccc(F)c21 (stereo not drawn) | < 0.05 | < 0.05 |
| CCC1Cc2cc(C(=O)O)sc2-c2c(F)ccc(F)c21 (stereo not drawn) | < 1 | < 0.05 |
| CC1Cc2cc(C(=O)O)sc2-c2ccccc21 (stereo not drawn) | < 1 | < 0.05 |
| COc1ccc2c(c1Br)CCc1cc(C(=O)O)sc1-2 | < 0.05 | < 0.05 |
| O=C(O)c1cc2c(s1)-c1cccc(Cl)c1OC2 | < 1 | < 0.05 |
| NC(=O)c1cc2c(s1)-c1cccc(Cl)c1CC2 | < 1 | < 0.05 |
| O=C(O)c1cc2c(s1)-c1cccc(Cl)c1CC2 | < 0.1 | < 0.05 |
| NC(=O)c1cc2c(s1)-c1c(F)ccc(Cl)c1OC2 | < 0.05 | < 0.05 |
| O=C(O)c1cc2c(s1)-c1c(F)ccc(Cl)c1OC2 | < 1 | < 0.05 |
| Cc1ccc2c(c1F)OCc1cc(C(=O)O)sc1-2 | < 1 | < 0.05 |
| COc1cc(F)c2c(c1)-c1sc(C(=O)O)cc1CC2 | < 1 | < 0.05 |
| Cc1cccc2c1OCc1cc(C(=O)O)sc1-2 | < 2 | < 0.05 |
| O=C(O)c1cc2c(s1)-c1cc(F)cc(F)c1OC2 | < 0.05 | < 0.05 |
| CC1(C)Oc2c(F)cc(F)cc2-c2sc(C(N)=O)cc21 | < 1 | < 0.5 |
| CC1Cc2cc(C(N)=O)sc2-c2cc(F)cc(F)c21 (stereo not drawn) | < 0.05 | < 0.05 |
| Cc1cc(C)c2c(c1)-c1sc(C(=O)O)cc1CO2 | < 1 | < 0.05 |
| NC(=O)c1cc2c(s1)-c1c(Cl)ccc(Cl)c1OC2 | < 0.05 | < 0.05 |
| O=C(O)c1cc2c(s1)-c1c(F)ccc(F)c1OC2 | < 0.1 | < 0.05 |
| CC1Cc2cc(C(=O)O)sc2-c2c(F)ccc(F)c21 (stereo not drawn) | < 0.05 | < 0.05 |
| CC1(C)Cc2cc(C(=O)O)sc2-c2c(F)ccc(F)c21 | < 1 | < 0.05 |
| CN(C)c1ccc2c(c1)CCc1cc(C(=O)O)sc1-2 | < 2 | < 0.5 |
| CNc1ccc2c(c1)CCc1cc(C(=O)O)sc1-2 | < 2 | < 0.05 |

| SMILES | IC50 [1] [µM] | EC50 [2] [µM] |
| --- | --- | --- |
| O=C(O)c1cc2c(s1)-c1ccc(C(F)(F)F)cc1OC2 | < 1 | < 0.05 |
| O=C(O)c1cc2c(s1)-c1ccc(Br)cc1CC2 | < 1 | < 0.05 |
| CC1Cc2cc(C(N)=O)sc2-c2ccc(Cl)cc21 (stereo not drawn) | < 0.1 | < 0.05 |
| CC1Cc2cc(C(=O)O)sc2-c2ccc(Cl)cc21 (stereo not drawn) | < 1 | < 0.05 |
| CC1(C)Cc2cc(C(N)=O)sc2-c2ccc(Cl)cc21 | < 1 | < 0.05 |
| CC1(C)Cc2cc(C(=O)O)sc2-c2ccc(Cl)cc21 | < 2 | < 0.05 |
| O=C(O)c1cc2c(s1)-c1ccc(F)cc1OC2 | < 2 | < 0.05 |
| O=C(O)c1cc2c(s1)-c1ccc(F)cc1SC2 | < 1 | < 0.05 |
| O=C(O)c1cc2c(s1)-c1cc(F)c(F)cc1SC2 | < 0.1 | < 0.05 |
| Cc1cc2c(cc1C)-c1sc(C(=O)O)cc1CO2 | < 1 | < 0.05 |
| NC(=O)c1cc2c(s1)-c1c(cc(F)c(F)c1F)OC2 | < 0.05 | < 0.05 |
| Cc1cc(Cl)cc2c1OCc1cc(C(=O)O)sc1-2 | < 1 | < 0.05 |
| O=C(O)c1cc2c(s1)-c1cc(Cl)c(C(F)(F)F)cc1OC2 | < 1 | < 0.05 |
| Cc1cc2c(cc1Cl)-c1sc(C(=O)O)cc1CO2 | < 1 | < 0.05 |
| O=C(O)c1cc2c(s1)-c1cc(F)ccc1S(=O)(=O)C2 | < 1 | < 0.05 |
| CC1Cc2cc(C(=O)O)sc2-c2cc(F)ccc21 (stereo not drawn) | < 0.05 | < 0.05 |
| Cc1cc2c(cc1F)-c1sc(C(=O)O)cc1CO2 | < 0.1 | < 0.05 |
| Cc1ccc2c(c1)-c1sc(C(N)=O)cc1CS2 | < 2 | < 0.05 |
| NC(=O)c1cc2c(s1)-c1c(F)cccc1OC2 | < 0.05 | < 0.05 |
| O=C(NCCN1CCCCC1)c1cc2c(s1)-c1ccccc1CC2 | < 1 | < 1 |
| O=C(NO)c1cc2c(s1)-c1ccccc1CC2 | < 0.05 | < 0.05 |
| CCCNC(=O)c1cc2c(s1)-c1ccccc1CC2 | < 0.1 | < 0.5 |
| COc1ccc2c(c1Cl)CCc1cc(C(=O)N3CCC(F)C3)sc1-2 (stereo not drawn) | < 0.05 | < 0.05 |
| O=C(c1cc2c(s1)-c1cccc(F)c1CC2)N1CCC(F)C1 (stereo not drawn) | < 1 | < 0.05 |
| COC(=O)C1CN(C(=O)c2cc3c(s2)-c2ccc(Cl)c(F)c2OC3)CC1c1ccccc1F (stereo not drawn) | < 0.1 | < 0.05 |

The remaining lines, values ahead:

| IC50 [1] [µM] | EC50 [2] [µM] | SMILES |
| --- | --- | --- |
| < 0.1 | < 0.05 | COc1ccc2c(c1Cl)CCc1cc(C(=O)N3CCC(C#N)C3)sc1-2 (stereo not drawn) |
| < 0.1 | < 0.05 | O=C1CCN(C(=O)c2cc3c(s2)-c2ccc(Cl)c(Cl)c2OC3)C1 |
| < 0.1 | < 0.05 | N#CC1CCN(C(=O)c2cc3c(s2)-c2ccc(Cl)c(Cl)c2OC3)C1 (stereo not drawn) |
| < 2 | < 0.05 | CC1Cc2ccccc2-c2sc(C(=O)O)cc21 (stereo not drawn) |
| < 1 | < 0.05 | NC(=O)c1cc2c(s1)-c1ccccc1S(=O)(=O)C2 |
| < 1 | < 0.05 | NC(=O)c1cc2c(s1)-c1cccc(Cl)c1OC2 |
| < 0.05 | < 0.05 | Cc1cc(Cl)c2c(c1)-c1sc(C(N)=O)cc1CC2 |
| < 1 | < 0.05 | N#Cc1cccc2c1CCc1cc(C(N)=O)sc1-2 |
| < 0.05 | < 0.05 | NC(=O)c1cc2c(s1)-c1cccc(F)c1OC2 |
| < 1 | < 0.05 | Cc1cccc2c1OCc1cc(C(N)=O)sc1-2 |
| < 0.05 | < 0.05 | NC(=O)c1cc2c(s1)-c1cc(F)cc(F)c1OC2 |
| < 0.05 | < 0.05 | CC1Cc2cc(C(=O)O)sc2-c2cc(F)cc(F)c21 (stereo not drawn) |
| < 0.05 | < 0.05 | CC1Cc2cc(C(N)=O)sc2-c2c(F)ccc(F)c21 (stereo not drawn) |
| < 2 | < 0.5 | O=C(O)c1cc2c(s1)-c1cc(F)c(F)cc1S(=O)(=O)C2 |
| < 1 | < 0.05 | CC1Cc2cc(C(=O)O)sc2-c2cc(F)c(F)cc21 (stereo not drawn) |
| < 0.05 | < 0.05 | CC1Cc2cc(C(N)=O)sc2-c2cc(F)c(F)cc21 (stereo not drawn) |

| IC50 [1] [µM] | EC50 [2] [µM] | SMILES |
| --- | --- | --- |
| < 2 | < 0.05 | CC1(C)Cc2cc(C(=O)O)sc2-c2cc(F)c(F)cc21 |
| < 2 | < 0.05 | Cc1cc(C)c2c(c1)OCc1cc(C(N)=O)sc1-2 |
| < 1 | < 0.05 | NC(=O)c1cc2c(s1)-c1cc(Cl)ccc1SC2 |
| < 1 | < 0.05 | Cc1cc(Cl)cc2c1OCc1cc(C(N)=O)sc1-2 |
| < 0.1 | < 0.05 | CC1Oc2ccc(F)cc2-c2sc(C(N)=O)cc21 (stereo not drawn) |
| < 0.05 | < 0.05 | NC(=O)c1cc2c(s1)-c1cc(F)ccc1OC2 |
| < 0.05 | < 0.05 | CC1Cc2cc(C(N)=O)sc2-c2cc(F)ccc21 (stereo not drawn) |
| < 0.1 | < 0.05 | Cc1cc(F)cc2c1OCc1cc(C(=O)O)sc1-2 |
| < 0.05 | < 0.05 | COc1ccc2c(c1Cl)CCc1cc(C(=O)N3CCC(OC)C3)sc1-2 (stereo not drawn) |
| < 0.05 | < 0.05 | COC1CCN(C(=O)c2cc3c(s2)-c2cccc(F)c2CC3)C1 (stereo not drawn) |
| < 1 | < 0.05 | O=C(c1cc2c(s1)-c1ccc(Cl)c(Cl)c1OC2)N1CCC(F)C1 (stereo not drawn) |
| < 0.1 | < 0.05 | O=C(c1cc2c(s1)-c1ccc(F)c(F)c1CC2)N1CCC(F)C1 (stereo not drawn) |
| < 1 | < 0.05 | O=C(c1cc2c(s1)-c1cc(Cl)cc(F)c1OC2)N1CCC(F)C1 (stereo not drawn) |
| < 2 | < 0.05 | CCOC(=O)c1cc2c(s1)-c1ccccc1CC2 |
| < 2 | < 0.05 | CC(C)(C)OC(=O)NCCNC(=O)c1cc2c(s1)-c1ccccc1CC2 |

Source: patent publication US9624238B2, “4H-thieno[3,2-C]chromene-based inhibitors of Notum Pectinacetylesterase and methods of their use” (Lexicon Pharmaceuticals, Inc., priority 2011, dated 2017)
